In patent US20100113291A1 (CENTRE NATIONAL DE LA RECHERCHE SCIENTIFIQUE, priority 2006, published 2010):

Molecular target: T1, MabA-C60V/S144L (Mycobacterium tuberculosis, UniProt P9WGT3, C60V/S144L)
T1 construct: made in house; host or cells: Escherichia coli
Type: binding
Details: read-out: KD for the cofactor

**Q.** How did the Kd turn out when `NC(=O)C1=CN([C@@H]2O[C@H](COP(=O)(O)OP(=O)(O)OC[C@H]3O[C@@H](n4cnc5c(N)ncnc54)[C@H](OP(=O)(O)O)[C@@H]3O)[C@@H](O)[C@H]2O)C=CC1` [NADPH] was run?
**A.** 11.2 µM
